Patent publication US11130793B2, “GLP-1/GLP-2 dual agonists” (Zealand Pharma A/S, priority 2016, dated 2021)
Square brackets hold non-standard residues; d marks the D form. Peptide text beside a SMILES is read from it. Aib = CC(C)(N)C(=O)O

Key:
[1] = biological target: T1, human GLP-1 receptor (Homo sapiens, UniProt P43220); test: GLP-1 receptor potency assay (cAMP AlphaScreen, HEK293 cells stably expressing GLP-1R); type: cell-based; conditions: cAMP response, HEK293 cells expressing human GLP-1R; read-out: EC50 GLP-1
T1 construct: expressed in transfected cells
T1 sequence (P43220 24-463): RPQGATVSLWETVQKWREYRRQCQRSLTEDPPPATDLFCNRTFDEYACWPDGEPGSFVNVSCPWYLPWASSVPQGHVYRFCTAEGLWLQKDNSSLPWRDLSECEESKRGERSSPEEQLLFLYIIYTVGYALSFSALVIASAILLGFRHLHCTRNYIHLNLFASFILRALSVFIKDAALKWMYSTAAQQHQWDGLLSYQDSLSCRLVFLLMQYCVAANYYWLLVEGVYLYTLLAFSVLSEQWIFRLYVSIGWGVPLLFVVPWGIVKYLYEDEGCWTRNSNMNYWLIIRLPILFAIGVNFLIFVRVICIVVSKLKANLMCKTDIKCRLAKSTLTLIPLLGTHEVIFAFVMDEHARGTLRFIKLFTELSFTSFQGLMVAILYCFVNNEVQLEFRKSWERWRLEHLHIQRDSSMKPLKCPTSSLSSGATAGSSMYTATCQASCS
How it was run: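 A HEK293 clone stably expressing cloned human GLP-1R (G418-selected) was stimulated with compound. Intracellular cAMP was measured by AlphaScreen. Responses were normalized to positive and vehicle controls, and EC50 and maximal response were fitted by 4-parameter logistic regression.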

[2] = biological target: T2, human GLP-2 receptor (Homo sapiens, UniProt O95838, D470N); test: GLP-2 receptor potency assay (cAMP AlphaScreen, HEK293 cells stably expressing GLP-2R); type: cell-based; conditions: cAMP response, HEK293 cells expressing human GLP-2R
T2 sequence (O95838 1-553 D470N): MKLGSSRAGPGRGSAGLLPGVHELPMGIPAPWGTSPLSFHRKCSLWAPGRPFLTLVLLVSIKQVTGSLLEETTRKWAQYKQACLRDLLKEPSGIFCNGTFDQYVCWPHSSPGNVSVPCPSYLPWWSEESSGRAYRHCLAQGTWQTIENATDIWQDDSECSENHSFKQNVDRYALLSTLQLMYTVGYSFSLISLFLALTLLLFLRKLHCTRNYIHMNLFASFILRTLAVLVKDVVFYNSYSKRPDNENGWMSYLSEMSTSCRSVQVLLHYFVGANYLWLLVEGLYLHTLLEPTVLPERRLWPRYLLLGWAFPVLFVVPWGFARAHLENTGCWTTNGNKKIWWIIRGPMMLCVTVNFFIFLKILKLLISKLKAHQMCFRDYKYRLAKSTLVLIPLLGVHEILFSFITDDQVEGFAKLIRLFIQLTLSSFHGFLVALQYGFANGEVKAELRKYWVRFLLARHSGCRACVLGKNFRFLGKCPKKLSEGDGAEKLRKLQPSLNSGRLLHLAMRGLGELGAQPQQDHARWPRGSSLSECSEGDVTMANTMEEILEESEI
How it was run: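 HEK293 cells stably expressing human GLP-2R (G418-selected clone); intracellular cAMP measured by AlphaScreen. Responses normalized to positive and vehicle controls; EC50 and maximal response from 4-parameter logistic fit.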

| Structure (SMILES) | EC50 [1] | EC50 [2] |
| --- | --- | --- |
| CC[C@H](C)[C@H](NC(=O)[C@H](Cc1ccccc1)NC(=O)[C@H](CC(=O)O)NC(=O)[C@H](CCCNC(=N)N)NC(=O)[C@H](C)NC(=O)[C@H](C)NC(=O)[C@H](CCC(N)=O)NC(=O)[C@H](CCC(=O)O)NC(=O)[C@H](CC(=O)O)NC(=O)[C@H](CC(C)C)NC(=O)[C@@H](NC(=O)[C@@H](NC(=O)[C@H](C)NC(=O)[C@H](CC(C)C)NC(=O)[C@H](CCC(=O)O)NC(=O)[C@H](CO)NC(=O)[C@@H](NC(=O)[C@H](Cc1ccccc1)NC(=O)[C@@H](NC(=O)CNC(=O)[C@H](CCC(=O)O)NC(=O)C(C)(C)NC(=O)[C@@H](N)Cc1c[nH]cn1)[C@@H](C)O)[C@@H](C)O)[C@@H](C)O)[C@@H](C)CC)C(=O)N[C@@H](C)C(=O)N[C@@H](Cc1c[nH]c2ccccc12)C(=O)N[C@@H](CC(C)C)C(=O)N[C@@H](Cc1c[nH]cn1)C(=O)N[C@@H](CCC(N)=O)C(=O)N[C@@H](Cc1c[nH]cn1)C(=O)N[C@@H](CCCCN)C(=O)N[C@H](C(=O)N[C@H](C(=O)N[C@@H](CC(=O)O)C(=O)O)[C@@H](C)O)[C@@H](C)CC [Compound 21] (H-H[Aib]EGTFTSELATILDEQAARDFIAWLHQHKITD-OH) | 0.049 nM | 0.11 nM |
| CC[C@H](C)[C@H](NC(=O)[C@H](Cc1ccccc1)NC(=O)[C@H](CC(=O)O)NC(=O)[C@H](CCCNC(=N)N)NC(=O)[C@H](C)NC(=O)[C@H](C)NC(=O)[C@H](CCC(N)=O)NC(=O)[C@H](CCC(=O)O)NC(=O)[C@H](CC(=O)O)NC(=O)[C@H](CC(C)C)NC(=O)[C@@H](NC(=O)[C@@H](NC(=O)[C@H](C)NC(=O)[C@H](CC(C)C)NC(=O)[C@H](CCC(=O)O)NC(=O)[C@H](CO)NC(=O)[C@@H](NC(=O)[C@H](Cc1ccccc1)NC(=O)[C@@H](NC(=O)CNC(=O)[C@H](CCC(=O)O)NC(=O)C(C)(C)NC(=O)[C@@H](N)Cc1c[nH]cn1)[C@@H](C)O)[C@@H](C)O)[C@@H](C)O)[C@@H](C)CC)C(=O)N[C@@H](C)C(=O)N[C@@H](Cc1c[nH]c2ccccc12)C(=O)N[C@@H](CC(C)C)C(=O)N[C@H](C(=O)N[C@@H](CCCCN)C(=O)N[C@@H](Cc1c[nH]cn1)C(=O)N[C@@H](CCCCN)C(=O)N[C@H](C(=O)N[C@H](C(=O)N[C@@H](CC(=O)O)C(=O)O)[C@@H](C)O)[C@@H](C)CC)[C@@H](C)CC [Compound 16] (H-H[Aib]EGTFTSELATILDEQAARDFIAWLIKHKITD-OH) | 0.006 nM | 0.026 nM |
| CC[C@H](C)[C@H](NC(=O)[C@H](Cc1ccccc1)NC(=O)[C@H](CC(=O)O)NC(=O)[C@H](CCCNC(=N)N)NC(=O)[C@H](C)NC(=O)[C@H](C)NC(=O)[C@H](CCC(N)=O)NC(=O)[C@H](CCC(=O)O)NC(=O)[C@H](CC(=O)O)NC(=O)[C@H](CC(C)C)NC(=O)[C@@H](NC(=O)[C@@H](NC(=O)[C@H](C)NC(=O)[C@H](CC(C)C)NC(=O)[C@H](CCC(=O)O)NC(=O)[C@H](CO)NC(=O)[C@@H](NC(=O)[C@H](Cc1ccccc1)NC(=O)[C@@H](NC(=O)CNC(=O)[C@H](CCC(=O)O)NC(=O)C(C)(C)NC(=O)[C@@H](N)Cc1c[nH]cn1)[C@@H](C)O)[C@@H](C)O)[C@@H](C)O)[C@@H](C)CC)C(=O)N[C@@H](CC(N)=O)C(=O)N[C@@H](Cc1c[nH]c2ccccc12)C(=O)N[C@@H](CC(C)C)C(=O)N[C@@H](CCCCN)C(=O)N[C@@H](CCC(=O)O)C(=O)N[C@@H](CCC(N)=O)C(=O)N[C@@H](CCCCN)C(=O)N[C@H](C(=O)N[C@H](C(=O)N[C@@H](CC(=O)O)C(=O)O)[C@@H](C)O)[C@@H](C)CC [Compound 37] (H-H[Aib]EGTFTSELATILDEQAARDFINWLKEQKITD-OH) | 0.007 nM | 0.16 nM |
